Experimental data from patent US20240000872A1, “NOVEL BACTERIOPHAGE THAT LYSES ACINETOBACTER GENUS BACTERIA HAVING RESISTANCE TO ANTIBIOTICS” (priority 2020, published 2024).

Tested on: Acinetobacter baumannii strains
Experiment: Antibiotic susceptibility test (CLSI disk diffusion test method, read per CLSI 2016); as to antibiotic susceptibility S/I/R: key: ‘S’ means susceptible; ‘I’ means intermediate; ‘R’ means resistant; as to antibiotic susceptibility class: key: ‘S’ means susceptible; ‘I’ means intermediate; ‘R’ means resistant; as to susceptibility category (S/I/R): key: ‘S’ means susceptible; ‘I’ means intermediate; ‘R’ means resistant
Type: cell-based
Set-up: antibiotic susceptibility test value / susceptibility test value (number given before S/I/R) / antibiotic susceptibility value: unit not given here

Substance: gentamicin
- antibiotic susceptibility test value (host strain YMC14/01/U318): 16
- antibiotic susceptibility class (host strain YMC14/02/L18): R
- antibiotic susceptibility test value (host strain YMC14/02/L18): 16
- antibiotic susceptibility class (host strain YMC14/02/P47): R
- antibiotic susceptibility test value (host strain YMC14/02/P47): 16
- antibiotic susceptibility class (host strain YMC14/02/R1860): I
- antibiotic susceptibility test value (host strain YMC14/02/R1860): 8
- antibiotic susceptibility class (host strain YMC14/02/R2417): R
- antibiotic susceptibility test value (host strain YMC14/02/R2417): 16
- antibiotic susceptibility class (host strain YMC14/02/R2599): S
- antibiotic susceptibility test value (host strain YMC14/02/R2599): 2
- antibiotic susceptibility class (host strain YMC14/02/R2668): R
- antibiotic susceptibility test value (host strain YMC14/02/R2668): 16
- antibiotic susceptibility class (host strain YMC14/02/R2758): R
- antibiotic susceptibility test value (host strain YMC14/02/R2758): 16
- antibiotic susceptibility class (host strain YMC14/02/R2781): R
- antibiotic susceptibility test value (host strain YMC14/02/R2781): 16
- antibiotic susceptibility class (host strain YMC14/02/R3106): R
- antibiotic susceptibility test value (host strain YMC14/02/R3106): 16
- antibiotic susceptibility class (host strain YMC14/02/R3419): R
- antibiotic susceptibility test value (host strain YMC14/02/R3419): 16
- antibiotic susceptibility class (host strain YMC14/02/U1607): R
- antibiotic susceptibility test value (host strain YMC14/02/U1607): 16
- antibiotic susceptibility class (host strain YMC14/03/L9): R
- antibiotic susceptibility test value (host strain YMC14/03/L9): 16
- antibiotic susceptibility class (host strain YMC14/03/P471): S
- antibiotic susceptibility test value (host strain YMC14/03/P471): 2
- antibiotic susceptibility class (host strain YMC14/03/R122): R
- antibiotic susceptibility test value (host strain YMC14/03/R122): 16
- antibiotic susceptibility class (host strain YMC14/03/R217): R
- antibiotic susceptibility test value (host strain YMC14/03/R217): 16
- antibiotic susceptibility class (host strain YMC14/03/R380): R
- antibiotic susceptibility test value (host strain YMC14/03/R380): 16
- antibiotic susceptibility class (host strain YMC14/03/R618): S
- antibiotic susceptibility test value (host strain YMC14/03/R618): 2
- antibiotic susceptibility class (host strain YMC14/03/R2144): R
- antibiotic susceptibility test value (host strain YMC14/03/R2144): 16
- antibiotic susceptibility class (host strain YMC14/03/U4616): R
- antibiotic susceptibility test value (host strain YMC14/03/U4616): 16
- antibiotic susceptibility class (host strain YMC14/04/R1078): S
- antibiotic susceptibility test value (host strain YMC14/04/R1078): 2
- antibiotic susceptibility class (host strain YMC14/04/R1080): S
- antibiotic susceptibility test value (host strain YMC14/04/R1080): 2
- antibiotic susceptibility S/I/R (host strain YMC14/06/R2359): R
- antibiotic susceptibility value (host strain YMC14/06/R2359): 16
- susceptibility category (S/I/R) (host strain YMC14/06/R2359): R
- susceptibility test value (number given before S/I/R) (host strain YMC14/06/R2359): 16
- antibiotic susceptibility S/I/R (host strain YMC14/08/R1169): R
- antibiotic susceptibility value (host strain YMC14/08/R1169): 16
- susceptibility category (S/I/R) (host strain YMC14/08/R1169): R
- susceptibility test value (number given before S/I/R) (host strain YMC14/08/R1169): 16
- antibiotic susceptibility S/I/R (host strain YMC14/08/T90): R
- antibiotic susceptibility value (host strain YMC14/08/T90): 16
- susceptibility category (S/I/R) (host strain YMC14/08/T90): R
- susceptibility test value (number given before S/I/R) (host strain YMC14/08/T90): 16
- antibiotic susceptibility S/I/R (host strain YMC15/02/R436): R
- antibiotic susceptibility value (host strain YMC15/02/R436): 16
- susceptibility category (S/I/R) (host strain YMC15/02/R436): R
- susceptibility test value (number given before S/I/R) (host strain YMC15/02/R436): 16
- antibiotic susceptibility S/I/R (host strain YMC15/02/T28): R
- antibiotic susceptibility value (host strain YMC15/02/T28): 16
- susceptibility category (S/I/R) (host strain YMC15/02/T28): R
- susceptibility test value (number given before S/I/R) (host strain YMC15/02/T28): 16
- antibiotic susceptibility S/I/R (host strain YMC15/03/R1604): R
- antibiotic susceptibility value (host strain YMC15/03/R1604): 16
- susceptibility category (S/I/R) (host strain YMC15/03/R1604): R
- susceptibility test value (number given before S/I/R) (host strain YMC15/03/R1604): 16
- antibiotic susceptibility S/I/R (host strain YMC15/09/R1869): R
- antibiotic susceptibility value (host strain YMC15/09/R1869): 16
- susceptibility category (S/I/R) (host strain YMC15/09/R1869): R
- susceptibility test value (number given before S/I/R) (host strain YMC15/09/R1869): 16
- antibiotic susceptibility S/I/R (host strain YMC16/01/P11): R
- antibiotic susceptibility value (host strain YMC16/01/P11): 16
- susceptibility category (S/I/R) (host strain YMC16/01/P11): R
- susceptibility test value (number given before S/I/R) (host strain YMC16/01/P11): 16
- antibiotic susceptibility S/I/R (host strain YMC16/01/R123): R
- antibiotic susceptibility value (host strain YMC16/01/R123): 16
- susceptibility category (S/I/R) (host strain YMC16/01/R123): R
- susceptibility test value (number given before S/I/R) (host strain YMC16/01/R123): 16
- antibiotic susceptibility S/I/R (host strain YMC16/01/R198): R
- antibiotic susceptibility value (host strain YMC16/01/R198): 16
- susceptibility category (S/I/R) (host strain YMC16/01/R198): R
- susceptibility test value (number given before S/I/R) (host strain YMC16/01/R198): 16
- antibiotic susceptibility S/I/R (host strain YMC16/01/R353): R
